According to PubChem BioAssay AID330 (DTP/NCI, 2004):
Values joined by “and” are separate entries in the source; they are usually repeats but may differ in a detail not shown here. Equal entries are not always repeated. Toxic doses and inconclusive results are not listed. How the source made its calls: active means survival T/C of 150% or more; inactive means T/C below 125% in these data.

Test system: P388 leukemia ip, CD2F1 mice, survival T/C
Assay: NCI In Vivo Anticancer Drug Screen. Data for tumor model P388 Leukemia (intraperitoneal) in CD2F1 (CDF1) mice
Details: endpoint: median survival time, higher = longer survival
Summary of the method: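 Mice carrying the transplanted tumor received test compound or vehicle. Survival was recorded in each group, and the value is the treated-group measurement divided by that of the vehicle-treated control group.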

[1] = dose: 60.0 mg/kg/injection, schedule: Q01DX005 (ip), vehicle: saline with Tween-80
[2] = dose: 120.0 mg/kg/injection, schedule: Q01DX005 (ip), vehicle: saline with Tween-80
[3] = dose: 240.0 mg/kg/injection, schedule: Q01DX005 (ip), vehicle: saline with Tween-80
[4] = dose: 50.0 mg/kg/injection, schedule: Q01DX009 (ip), vehicle: Klucel (hydroxypropylcellulose) (HPC)
[5] = dose: 100.0 mg/kg/injection, schedule: Q01DX009 (ip), vehicle: Klucel (hydroxypropylcellulose) (HPC)
[6] = dose: 200.0 mg/kg/injection, schedule: Q01DX009 (ip), vehicle: Klucel (hydroxypropylcellulose) (HPC)
[7] = dose: 50.0 mg/kg/injection, schedule: Q01DX009 (ip), vehicle: saline
[8] = dose: 100.0 mg/kg/injection, schedule: Q01DX009 (ip), vehicle: saline
[9] = dose: 50.0 mg/kg/injection, schedule: Q01DX005 (ip), vehicle: saline with Tween-80
[10] = dose: 100.0 mg/kg/injection, schedule: Q01DX005 (ip), vehicle: saline with Tween-80
[11] = dose: 200.0 mg/kg/injection, schedule: Q01DX005 (ip), vehicle: saline with Tween-80

Measured: T/C

CCOC(=O)C(/C=N/NS(=O)(=O)c1ccc(C)cc1)c1ccccc1 (stereo not given)
inactive: dose: 100.0 mg/kg/injection, schedule: Q04DX002 (ip), vehicle: saline 96 % of control | dose: 200.0 mg/kg/injection, schedule: Q04DX002 (ip), vehicle: saline 94 % of control | dose: 400.0 mg/kg/injection, schedule: Q04DX002 (ip), vehicle: saline 97 % of control

CN1CCN(CN2C(=O)NC(c3ccccc3)(c3ccccc3)C2=O)CC1
inactive: dose: 60.0 mg/kg/injection, schedule: Q01DX005 (ip), vehicle: Klucel (hydroxypropylcellulose) (HPC) 90 % of control | dose: 120.0 mg/kg/injection, schedule: Q01DX005 (ip), vehicle: Klucel (hydroxypropylcellulose) (HPC) 107 % of control | dose: 240.0 mg/kg/injection, schedule: Q01DX005 (ip), vehicle: Klucel (hydroxypropylcellulose) (HPC) 98 % of control

CCCC(=O)C(CC)C(=O)CCC(=O)Nc1cccc([N+](=O)[O-])c1 (stereo not given)
inactive: [1] 101 % of control | [2] 104 % of control | [3] 109 % of control

COc1ccc2[nH]c3cc4c(=O)c5cc(OC)ccc5[nH]c4cc3c(=O)c2c1
inactive: [4] 96 % of control | [5] 100 % of control | [6] 100 % of control

CNC(=S)C#N
inactive: dose: 25.0 mg/kg/injection, schedule: Q01DX005 (ip), vehicle: saline + Tween-80 + alcohol 122 % of control | dose: 50.0 mg/kg/injection, schedule: Q01DX005 (ip), vehicle: saline + Tween-80 + alcohol 111 % of control and 119 % of control | dose: 100.0 mg/kg/injection, schedule: Q01DX005 (ip), vehicle: saline + Tween-80 + alcohol 119 % of control

Cc1ccc2c(c1)C(=O)C(CN1CCOCC1)CCO2 (stereo not given)
inactive: dose: 100.0 mg/kg/injection, schedule: Q04DX003 (ip), vehicle: saline 100 % of control | dose: 200.0 mg/kg/injection, schedule: Q04DX003 (ip), vehicle: saline 102 % of control | dose: 400.0 mg/kg/injection, schedule: Q04DX003 (ip), vehicle: saline 96 % of control

O=S(=O)(NCCSSCCNS(=O)(=O)c1ccc2ccccc2c1)c1ccc2ccccc2c1
inactive: [4] 91 % of control | [5] 92 % of control | [6] 88 % of control

COC(=O)C12CC=CCC1(C(=O)OC)CC=CC2 (stereo not given)
inactive: [4] 101 % of control | [5] 100 % of control | [6] 102 % of control

Cl
inactive: dose: 6.25 mg/kg/injection, schedule: Q01DX009 (ip), vehicle: saline with Tween-80 95 % of control | dose: 0.01 % in 0.5 ml injection vol, schedule: Q01DX009 (ip), vehicle: water 100 % of control | dose: 12.5 mg/kg/injection, schedule: Q01DX009 (ip), vehicle: saline with Tween-80 100 % of control | dose: 0.02 % in 0.5 ml injection vol, schedule: Q01DX009 (ip), vehicle: water 101 % of control and 92 % of control | dose: 25.0 mg/kg/injection, schedule: Q01DX009 (ip), vehicle: saline with Tween-80 100 % of control | dose: 25.0 mg/kg/injection, schedule: Q01DX009 (ip), vehicle: saline 106 % of control | dose: 0.04 % in 0.5 ml injection vol, schedule: Q01DX009 (ip), vehicle: water 102 % of control and 108 % of control | [7] 104 % of control | dose: 50.0 mg/kg/injection, schedule: Q#A X018 (ip), vehicle: saline 99 % of control | dose: 0.08 % in 0.5 ml injection vol, schedule: Q01DX009 (ip), vehicle: water 100 % of control and 88 % of control | [8] 101 % of control | dose: 100.0 mg/kg/injection, schedule: Q#A X018 (ip), vehicle: saline 105 % of control | dose: 0.16 % in 0.5 ml injection vol, schedule: Q01DX009 (ip), vehicle: water 88 % of control | dose: 200.0 mg/kg/injection, schedule: Q01DX009 (ip), vehicle: saline 110 % of control and 97 % of control | dose: 200.0 mg/kg/injection, schedule: Q#A X018 (ip), vehicle: saline 97 % of control | dose: 0.31 % in 0.5 ml injection vol, schedule: Q01DX009 (ip), vehicle: water 88 % of control | dose: 400.0 mg/kg/injection, schedule: Q01DX009 (ip), vehicle: saline 95 % of control | dose: 400.0 mg/kg/injection, schedule: Q#A X018 (ip), vehicle: saline 87 % of control | dose: 800.0 mg/kg/injection, schedule: Q01DX009 (ip), vehicle: saline 103 % of control

Cn1c(=O)n2n(c1=O)C1(CCO)CCC2(CCO)CC1
inactive: [9] 99 % of control | [10] 103 % of control | [11] 100 % of control

Cc1ccc(C(C)(C)O)cc1O
inactive: dose: 8.75 mg/kg/injection, schedule: Q01DX005 (ip), vehicle: Klucel + Tween-80 100 % of control | dose: 17.5 mg/kg/injection, schedule: Q01DX005 (ip), vehicle: Klucel + Tween-80 100 % of control | dose: 35.0 mg/kg/injection, schedule: Q01DX005 (ip), vehicle: Klucel + Tween-80 103 % of control | dose: 70.0 mg/kg/injection, schedule: Q01DX005 (ip), vehicle: Klucel + Tween-80 103 % of control

CN(C)CCOc1ccccn1
inactive: [7] 98 % of control | [8] 101 % of control

COc1ccc(C(CC(=O)O)C(N)C(=O)O)cc1 (stereo not given)
inactive: dose: 50.0 mg/kg/injection, schedule: Q01DX009 (ip), vehicle: suspension in saline 88 % of control | dose: 100.0 mg/kg/injection, schedule: Q01DX009 (ip), vehicle: suspension in saline 87 % of control | dose: 200.0 mg/kg/injection, schedule: Q01DX009 (ip), vehicle: suspension in saline 95 % of control

C1=CC2CC1CC2[P+](c1ccccc1)(c1ccccc1)c1ccccc1 (stereo not given)
inactive: dose: 12.5 mg/kg/injection, schedule: Q01DX001 (ip), vehicle: saline 102 % of control | dose: 25.0 mg/kg/injection, schedule: Q01DX001 (ip), vehicle: saline 115 % of control | dose: 50.0 mg/kg/injection, schedule: Q01DX001 (ip), vehicle: saline 97 % of control

O=C(N=Nc1c(O)[nH]c2ccccc12)C(F)(F)F
inactive: [9] 108 % of control | [10] 101 % of control | [11] 108 % of control

CC(N1CCOCC1)C(O)(c1ccccc1)c1ccccn1 (stereo not given)
inactive: dose: 50.0 mg/kg/injection, schedule: Q01DX005 (ip), vehicle: saline + alcohol 103 % of control | dose: 100.0 mg/kg/injection, schedule: Q01DX005 (ip), vehicle: saline + alcohol 115 % of control

N#CCS(=O)CC(N)C(=O)O (stereo not given)
inactive: [9] 102 % of control | [10] 101 % of control | [11] 100 % of control

Cc1ccc(-n2c(=O)[nH]c3ccccc3c2=O)cc1[N+](=O)[O-]
inactive: dose: 6.25 mg/kg/injection, schedule: Q01DX005 (ip), vehicle: saline with Tween-80 101 % of control | dose: 12.5 mg/kg/injection, schedule: Q01DX005 (ip), vehicle: saline with Tween-80 97 % of control | [11] 90 % of control

CN=NNc1ccc(C)cc1
inactive: dose: 12.5 mg/kg/injection, schedule: Q01DX009 (ip), vehicle: distilled water + Tween-80 96 % of control and 97 % of control | dose: 25.0 mg/kg/injection, schedule: Q01DX009 (ip), vehicle: distilled water + Tween-80 100 % of control | dose: 50.0 mg/kg/injection, schedule: Q01DX009 (ip), vehicle: distilled water + Tween-80 100 % of control and 124 % of control | dose: 100.0 mg/kg/injection, schedule: Q01DX009 (ip), vehicle: distilled water + Tween-80 123 % of control

CC(C)c1ccccc1N1C(=O)CC(Sc2ccccc2N)C1=O (stereo not given)
inactive: dose: 12.5 mg/kg/injection, schedule: Q01DX005 (ip), vehicle: Klucel (hydroxypropylcellulose) (HPC) 107 % of control | dose: 25.0 mg/kg/injection, schedule: Q01DX005 (ip), vehicle: Klucel (hydroxypropylcellulose) (HPC) 102 % of control | dose: 50.0 mg/kg/injection, schedule: Q01DX005 (ip), vehicle: Klucel (hydroxypropylcellulose) (HPC) 105 % of control and 90 % of control | dose: 200.0 mg/kg/injection, schedule: Q01DX005 (ip), vehicle: Klucel (hydroxypropylcellulose) (HPC) 90 % of control

CN(C)CCOC1=Nc2ccccc2O/C1=C/c1ccccc1
inactive: [4] 100 % of control | [5] 111 % of control

O=C1C(CN2CCCC2)C(O)=C(c2ccccc2)N1c1ccccc1 (stereo not given)
inactive: dose: 100.0 mg/kg/injection, schedule: Q01DX001 (ip), vehicle: saline with Tween-80 102 % of control | dose: 200.0 mg/kg/injection, schedule: Q01DX001 (ip), vehicle: saline with Tween-80 92 % of control | dose: 400.0 mg/kg/injection, schedule: Q01DX001 (ip), vehicle: saline with Tween-80 92 % of control

Cc1ccccc1NC(=O)OCCCl
inactive: [1] 100 % of control | [2] 100 % of control | [3] 97 % of control
